The target of one assay is T1, hCCR4 (Chem5-hCCR4 cells) (Homo sapiens, UniProt P51679).
T1 sequence (P51679 1-360): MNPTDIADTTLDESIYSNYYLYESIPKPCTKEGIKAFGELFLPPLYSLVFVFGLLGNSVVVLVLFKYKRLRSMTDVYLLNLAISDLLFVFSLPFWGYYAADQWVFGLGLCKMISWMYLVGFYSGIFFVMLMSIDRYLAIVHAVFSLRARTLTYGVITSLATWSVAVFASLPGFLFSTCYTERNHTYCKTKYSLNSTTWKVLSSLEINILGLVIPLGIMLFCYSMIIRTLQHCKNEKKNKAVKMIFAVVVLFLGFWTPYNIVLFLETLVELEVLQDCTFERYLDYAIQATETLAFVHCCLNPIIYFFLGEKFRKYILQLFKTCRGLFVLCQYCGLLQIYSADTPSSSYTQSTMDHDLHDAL
As to the kind of experiment: Calcium flux assay (CCL22-stimulated, FLIPR Calcium 6 dye). The format is cell-based. The conditions noted are these: Table 3, CCL22 1.5 nM, read-out: Potency (IC50). The method, then: Calcium Flux Assay. Compounds were evaluated in a calcium flux assay substantially performed as follows. Chem5-hCCR4 cells (EMD Millipore, Hayward, CA; HTS009C) were cultured under standard conditions and frozen in aliquots of 10×10^6 cells/mL. The day prior to compound testing, a vial was rapidly thawed and pipetted into 20 mL media (DMEM+10% FBS+1% Pen-Strep+1% L-glutamine). Cells were harvested by centrifugation and re-suspended in fresh culture medium. 25 μL of cell suspension was seeded into 384-well plates (Corning, Tewksbury, MA; CellBind with black wall/clear bottom). The plates were centrifuged at 300 g for 10 seconds and incubated overnight at 37° C. and 5% CO2. The day of compound testing, media was removed from the plates and 25 μL serum free media was added to each well. Plates were returned to the incubator for 2 h. 25 μL assay buffer (Hank's balanced salt solution+20 mM HEPES pH 7.4) containing FLIPR Calcium 6 dye (Molecular Devices, Sunnyvale, CA; #R8191) and probenecid (2.5 mM) was added to each well and incubated at 37° C. and 5% CO2 for 2 h. Compounds in DMSO were added to the plates using an HP D300e digital dispenser, and all wells were normalized to contain 0.25 μL (0.5%) DMSO. Plates were incubated for 1 hour at 37° C. and 5% CO2. CCL22 (Peprotech; Rockyhill, NJ) was diluted in assay buffer containing 0.1% BSA to 7.5 nM (corresponding to 5×EC80 of 1.5 nM).
Assay plates and working solution of CCL22 were transferred to the FlexStation plate reader (Molecular Devices) at 37° C. for 5 min of equilibration. Fluorescence recordings at 485 excitation/525 emission were performed at 2.5 second intervals. At t=16 seconds, 12.5 μL of CCL22 solution was added to each well and reads continued for 30 seconds at 2.5 second intervals. The minimum fluorescence (Fmin) was calculated by averaging the reads prior to ligand addition and the change in fluorescence (ΔF) was calculated by subtracting the Fmin from the average of the reads following ligand addition. The response ΔF/Fmin was plotted as a function of the compound concentration and the IC50 values were determined by non-linear regression analysis using a 4-parameter fit in either PRISM software (GraphPad; La Jolla, CA) or Dotmatics Browser.
A general note: Calcium flux is commonly read through the fluorescence of an indicator in the cells.
For the molecule `C[C@@H](Nc1nc(N2CC([C@H]3CCCN(CCO)C3)C2)ncc1C(F)(F)F)c1ccc(Cl)cc1Cl` [Example 15, 2-((R)-3-(1-(4-(((R)-1-(2,4-dichlorophenyl)ethyl)amino)-5-(trifluoromethyl)pyrimidin-2-yl)azetidin-3-yl)piperidin-1-yl)ethan-1-ol], the 50% inhibitory concentration (IC50) is > 500 nM. For the molecule `C[C@@H](Nc1nc(N2CC([C@H]3CCCN(CCO)C3)C2)ncc1Br)c1ccc(Cl)cc1Cl` [Example 11, 2-((R)-3-(1-(5-bromo-4-(((R)-1-(2,4-dichlorophenyl)ethyl)amino)pyrimidin-2-yl)azetidin-3-yl)piperidin-1-yl)ethan-1-ol], the half-inhibitory concentration (IC50) was < 100 nM. On the same count and under the same terms, for `C[C@@H](Nc1nc(N2CC([C@H]3CCCN([C@H]4C[C@](C)(C(=O)O)C4)C3)C2)ncc1Br)c1ccc(F)cc1Cl` [Example 45, (1R,3r)-3-((R)-3-(1-(5-bromo-4-(((R)-1-(2-chloro-4-fluorophenyl)ethyl)amino)pyrimidin-2-yl)azetidin-3-yl)piperidin-1-yl)-1-methylcyclobutane-1-carboxylic acid] the value was < 100 nM; for `Cc1nc(N2CC([C@H]3CCCN([C@H]4C[C@@H](C(=O)O)C4)C3)C2)nc(N[C@H](C)c2ccc(Cl)cc2Cl)c1C` [Example 30, (1S,3s)-3-((R)-3-(1-(4-(((R)-1-(2,4-dichlorophenyl)ethyl)amino)-5,6-dimethylpyrimidin-2-yl)azetidin-3-yl)piperidin-1-yl)cyclobutane-1-carboxylic acid], 100 to 500 nM.

In the case of `C[C@@H](Nc1nc(N2CC([C@H]3CCCN([C@H]4C[C@](C)(C(=O)O)C4)C3)C2)ncc1Br)c1ccc(Cl)cc1Cl` [Example 13, (1R,3r)-3-((R)-3-(1-(5-bromo-4-(((R)-1-(2,4-dichlorophenyl)ethyl)amino)pyrimidin-2-yl)azetidin-3-yl)piperidin-1-yl)-1-methylcyclobutane-1-carboxylic acid], the IC50 was < 100 nM.

Consider `C[C@@H](Nc1nc(N2CC([C@H]3CCCN([C@H]4C[C@@H](C(=O)O)C4)C3)C2)ncc1Br)c1ccc(Cl)cc1Cl` [Example 9, (1S,3s)-3-((R)-3-(1-(5-bromo-4-(((R)-1-(2,4-dichlorophenyl)ethyl)amino)pyrimidin-2-yl)azetidin-3-yl)piperidin-1-yl)cyclobutane-1-carboxylic acid], for which the IC50 was < 100 nM. As for `C[C@@H](Nc1nc(N2CC([C@H]3CCCN(CCO)C3)C2)ncc1C(=O)O)c1ccc(Cl)cc1Cl` [Example 33, 4-(((R)-1-(2,4-dichlorophenyl)ethyl)amino)-2-(3-((R)-1-(2-hydroxyethyl)piperidin-3-yl)azetidin-1-yl)pyrimidine-5-carboxylic acid], the IC50 is > 500 nM. For the molecule `C[C@@H](Nc1nc(N2CC([C@H]3CCCN(CCO)C3)C2)nc2ccccc12)c1ccc(Cl)cc1Cl` [Example 26, 2-((R)-3-(1-(4-(((R)-1-(2,4-dichlorophenyl)ethyl)amino)quinazolin-2-yl)azetidin-3-yl)piperidin-1-yl)ethan-1-ol], the half-maximal inhibitory concentration (IC50) is < 100 nM.

Take `Cc1cnc(N2CC([C@H]3CCCN(CC(C)(C)O)C3)C2)nc1N[C@H](C)c1ccc(Cl)cc1Cl` [Example 19, 1-((R)-3-(1-(4-(((R)-1-(2,4-dichlorophenyl)ethyl)amino)-5-methylpyrimidin-2-yl)azetidin-3-yl)piperidin-1-yl)-2-methylpropan-2-ol]: the half-maximal inhibitory concentration (IC50) is < 100 nM.

For the molecule `CC[C@]1(C(=O)O)C[C@H](N2CCC[C@H](C3CN(c4ncc(Cl)c(N[C@H](C)c5ccc(Cl)cc5Cl)n4)C3)C2)C1` [Example 23, (1R,3s)-3-((R)-3-(1-(5-chloro-4-(((R)-1-(2,4-dichlorophenyl)ethyl)amino)pyrimidin-2-yl)azetidin-3-yl)piperidin-1-yl)-1-ethylcyclobutane-1-carboxylic acid], the half-maximal inhibitory concentration (IC50) is 100 to 500 nM.

Take `Cc1cnc(N2CC([C@H]3CCCN([C@H]4C[C@@H](C(=O)O)C4)C3)C2)nc1N[C@H](C)c1ccc(Cl)cc1Cl` [Example 17, (1S,3s)-3-((R)-3-(1-(4-(((R)-1-(2,4-dichlorophenyl)ethyl)amino)-5-methylpyrimidin-2-yl)azetidin-3-yl)piperidin-1-yl)cyclobutane-1-carboxylic acid]: the IC50 was < 100 nM.

With `C[C@@H](Nc1cncc(N2CC([C@H]3CCCN(CCO)C3)C2)n1)c1ccc(Cl)cc1Cl` [Example 2, 2-((R)-3-(1-(6-(((R)-1-(2,4-dichlorophenyl)ethyl)amino)pyrazin-2-yl)azetidin-3-yl)piperidin-1-yl)ethan-1-ol], the IC50 was in the range of 100 to 500 nM. With `C[C@@H](Nc1nc(N2CC([C@H]3CCCN([C@H]4C[C@](C)(C(=O)O)C4)C3)C2)nc2ccsc12)c1ccc(Cl)cc1Cl` [Example 28, (1R,3r)-3-((R)-3-(1-(4-(((R)-1-(2,4-dichlorophenyl)ethyl)amino)thieno[3,2-d]pyrimidin-2-yl)azetidin-3-yl)piperidin-1-yl)-1-methylcyclobutane-1-carboxylic acid], the half-inhibitory concentration (IC50) was < 100 nM. Regarding `C[C@@H](Nc1nc(N2CC([C@H]3CCCN([C@H]4C[C@](C)(C(=O)O)C4)C3)C2)nc2sccc12)c1ccc(Cl)cc1Cl` [Example 29, (1R,3r)-3-((R)-3-(1-(4-(((R)-1-(2,4-dichlorophenyl)ethyl)amino)thieno[2,3-d]pyrimidin-2-yl)azetidin-3-yl)piperidin-1-yl)-1-methylcyclobutane-1-carboxylic acid], the IC50 was < 100 nM. Same read-out and setting: with `C[C@@H](Nc1nc(N2CC([C@H]3CCCN([C@H]4C[C@](C)(C(=O)O)C4)C3)C2)nc2c1CCC2)c1ccc(Cl)cc1Cl` [Example 20, (1R,3r)-3-((R)-3-(1-(4-(((R)-1-(2,4-dichlorophenyl)ethyl)amino)-6,7-dihydro-5H-cyclopenta[d]pyrimidin-2-yl)azetidin-3-yl)piperidin-1-yl)-1-methylcyclobutane-1-carboxylic acid] the figure was < 100 nM.

Staying with this assay, now noted: Table 4, CCL22 1.5 nM, read-out: Potency (IC50).
Take `C[C@@H](Nc1cnc(C#N)c(N2CC([C@H]3CCCN(CCC(=O)O)C3)C2)n1)c1ccc(Cl)cc1Cl` [Example 53, 3-(3-(1-(3-cyano-6-(((R)-1-(2,4-dichlorophenyl)ethyl)amino)pyrazin-2-yl)azetidin-3-yl)piperidin-1-yl)propanoic acid]: the IC50 is > 500 nM.

Staying with this assay, now noted: Table 5, CCL22 1.5 nM, read-out: Potency (IC50).
For `Cc1csc2nc(N3CC([C@H]4CCCN(C5CC(C)(C(=O)O)C5)C4)C3)nc(N[C@H](C)c3ccc(Cl)cc3Cl)c12` (single isomer, unassigned) [Example 74, trifluoroacetic acid], the IC50 is < 100 nM. For the molecule `CCc1cc(N[C@H](C)c2ccc(Cl)cc2Cl)nc(N2CC([C@H]3CCCN(C4CC(C)(C(=O)O)C4)C3)C2)n1` (single isomer, unassigned) [Example 92], the IC50 was < 100 nM. For `C[C@@H](Nc1nc(N2CC([C@H]3CCCN(C4CC(C)(C(=O)O)C4)C3)C2)ncc1C1CC1)c1ccc(Cl)cc1Cl` (single isomer, unassigned) [Example 54], the IC50 was < 100 nM. On the same count and under the same terms, for `CCC(O)c1cnc(N2CC([C@H]3CCCN([C@H]4C[C@](C)(C(=O)O)C4)C3)C2)nc1N[C@H](C)c1ccc(Cl)cc1Cl` (stereo partly drawn) [Example 73, 3-[(3R)-3-[1-[4-[[(1R)-1-(2,4-dichlorophenyl)ethyl]amino]-5-(1-hydroxypropyl)pyrimidin-2-yl]azetidin-3-yl]-1-piperidyl]-1-methyl-cyclobutanecarboxylic acid; 2,2,2-trifluoroacetic acid] the value was < 100 nM. In the case of `C[C@@H](Nc1nc(N2CC([C@H]3CCCN(C4CC(C)(C(=O)O)C4)C3)C2)ncc1CO)c1ccc(Cl)cc1Cl` (single isomer, unassigned) [Example 68], the IC50 was < 100 nM. In the case of `CCc1nc(N2CC([C@H]3CCCN(C4CC(C)(C(=O)O)C4)C3)C2)nc(N[C@H](C)c2ccc(Cl)cc2Cl)c1Cl` (single isomer, unassigned) [Example 77], the half-maximal inhibitory concentration (IC50) was < 100 nM.

The IC50 is the concentration needed to halve the response being measured.

The values above are taken from patent US12098139B2, “Chemokine receptor modulators and uses thereof” (RAPT Therapeutics, Inc., priority 2018, dated 2024).
